Usually EC50 stands for the midpoint of the concentration-response curve. A lower EC50 goes with an effect from little substance.

This note sets out measurements from US8288424B2, “Substituted tetrahydroimidazopyridine compounds and the use thereof in the treatment of pain and other conditions” (Gruenenthal GmbH, priority 2008, dated 2012).

For the first assay, the target named is T1, KCNQ2/3 channels (Homo sapiens, UniProt O43525+O43526).
T1 construct: expressed in transfected cells; host or cells: CHO-K1
The assay is described as follows: Fluorescence assay using a voltage-sensitive dye. The class given is cell-based. The conditions noted are these: 10 μmol test substance; CHO-K1 cells expressing KCNQ2/3 channels; agonistic activity; read-out: % Stimulation [10 μmol] Average. The gist of the method:
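CHO-K1 cells expressing KCNQ2/3 loaded with membrane-potential dye in ES buffer (1 mM KCl, pH 7.4), compound 30 min at room temperature, then KCl added (final 92 mM). Fluorescence (ex 525/em 560 nm) read before (F1) and at peak after (F2) KCl; agonism from F2/F1 change versus buffer controls, EC50 calculated.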
For `O=C(c1cn2c(n1)CCC(c1cc(F)ccc1F)C2)N1CCCC1` (stereo not drawn) [Compound 36, (6-(2,5-Difluorophenyl)-5,6,7,8-tetrahydroimidazo[1,2-a]pyridin-2-yl)(pyrrolidin-1-yl)methanone], the activation at 10 µM amounted to 21.7%. Turning to `O=C(c1cn2c(n1)CCC(c1ccccc1)C2)N1CCC(Cc2ccccc2)CC1` (stereo not drawn) [Compound 1, (4-Benzylpiperidin-1-yl)(6-phenyl-5,6,7,8-tetrahydroimidazo[1,2-a]pyridin-2-yl)methanone], the activation at 10 µM stood at 16.2%. On the same count and under the same terms, in the case of `COc1c(C)cc(C2CCc3nc(C(=O)NCc4ccc(F)cc4)cn3C2)cc1C` (stereo not drawn) [Compound 49, N-(4-Fluorobenzyl)-6-(4-methoxy-3,5-dimethylphenyl)-5,6,7,8-tetrahydroimidazo-[1,2-a]pyridine-2-carboxamide] it was 15.1%; in that of `COc1ccc(F)cc1C1CCc2nc(C(=O)N3CCC(Cc4ccccc4)CC3)cn2C1` (stereo not drawn) [Compound 8, (4-Benzylpiperidin-1-yl)(6-(5-fluoro-2-methoxyphenyl)-5,6,7,8-tetrahydroimidazo[1,2-a]pyridin-2-yl)methanone], 29.1%; in that of `Cc1cccc(N2CCN(C(=O)c3cn4c(n3)CCC(c3ccc(F)c(C)c3)C4)CC2)c1` (stereo not drawn) [Compound 65, (6-(4-Fluoro-3-methylphenyl)-5,6,7,8-tetrahydroimidazo[1,2-a]pyridin-2-yl)(4-(3-methylphenyl)piperazin-1-yl)methanone], 132%. On the same count and under the same terms, in the case of `CCc1ccc(C2CCc3nc(C(=O)N4CCC(Cc5ccccc5)CC4)cn3C2)cc1` (stereo not drawn) [Compound 11, (4-Benzylpiperidin-1-yl)(6-(4-ethylphenyl)-5,6,7,8-tetrahydroimidazo[1,2-a]pyridin-2-yl)methanone] it was 38.5%; in that of `Cc1cc(C2CCc3nc(C(=O)N4CCN(c5ccc(C(F)(F)F)cc5)CC4)cn3C2)ccc1F` (stereo not drawn) [Compound 62, (6-(4-Fluoro-3-methylphenyl)-5,6,7,8-tetrahydroimidazo[1,2-a]pyridin-2-yl)(4-(4-(trifluoromethyl)phenyl)piperazin-1-yl)methanone], 40.8%; in that of `O=C(NCc1ccccc1)c1cn2c(n1)CCC(c1cc(C(F)(F)F)cc(C(F)(F)F)c1)C2` (stereo not drawn) [Compound 43, N-Benzyl-6-(3,5-bis(trifluoromethyl)phenyl)-5,6,7,8-tetrahydroimidazo[1,2-a]pyridine-2-carboxamide], 16.3%. With `Cc1cc(C2CCc3nc(C(=O)NC(C)c4ccccc4)cn3C2)ccc1F` (stereo not drawn) [Compound 14, 6-(4-Fluoro-3-methylphenyl)-N-(1-phenylethyl)-5,6,7,8-tetrahydroimidazo[1,2-a]pyridine-2-carboxamide], the activation at 10 µM stood at 24.7%. The same measure, in the same setting: in the case of `Cc1cccc(C2CCc3nc(C(=O)N4CCN(c5cccc(C(F)(F)F)c5)CC4)cn3C2)c1` (stereo not drawn) [Compound 75, (6-m-Tolyl-5,6,7,8-tetrahydroimidazo[1,2-a]pyridin-2-yl)(4-(3-(trifluoromethyl)phenyl)piperazin-1-yl)methanone] it was 127%; in that of `O=C(c1cn2c(n1)CCC(c1cc(C(F)(F)F)cc(C(F)(F)F)c1)C2)N1CCCC1` (stereo not drawn) [Compound 30, (6-(3,5-Bis(trifluoromethyl)phenyl)-5,6,7,8-tetrahydroimidazo[1,2-a]pyridin-2-yl)(pyrrolidin-1-yl)methanone], 20.9%; in that of `O=C(c1cn2c(n1)CCC(c1ccc(F)c(F)c1)C2)N1CCN(c2cccc(C(F)(F)F)c2)CC1` (stereo not drawn) [Compound 79, (6-(3,4-Difluorophenyl)-5,6,7,8-tetrahydroimidazo[1,2-a]pyridin-2-yl)(4-(3-(trifluoromethyl)phenyl)piperazin-1-yl)methanone], 125%. Still for that read-out and setting: in the case of `Cc1cccc(C2CCc3nc(C(=O)N4CCC(Cc5ccccc5)CC4)cn3C2)c1` (stereo not drawn) [Compound 70, (4-Benzylpiperidin-1-yl)(6-m-tolyl-5,6,7,8-tetrahydroimidazo[1,2-a]pyridin-2-yl)methanone] it was 123%. On the same count and under the same terms, in the case of `O=C(c1cn2c(n1)CCC(c1ccccc1)C2)N(CCc1ccccc1)Cc1ccccc1` (stereo not drawn) [Compound 2, N-Benzyl-N-phenethyl-6-phenyl-5,6,7,8-tetrahydroimidazo[1,2-a]pyridine-2-carboxamide] it was 20%; in that of `CC(CCc1ccccc1)NC(=O)c1cn2c(n1)CCC(c1cccc(F)c1)C2` (stereo not drawn) [Compound 51, 6-(3-Fluorophenyl)-N-(4-phenylbutan-2-yl)-5,6,7,8-tetrahydroimidazo[1,2-a]pyridine-2-carboxamide], 16.2%. Regarding `CC1(C)CC2CC(C)(CN2C(=O)c2cn3c(n2)CCC(c2ccc(F)cc2)C3)C1` (stereo not drawn) [Compound 38, (6-(4-Fluorophenyl)-5,6,7,8-tetrahydroimidazo[1,2-a]pyridin-2-yl)(1,3,3-trimethyl-6-azabicyclo[3.2.1]octan-6-yl)methanone], the activation at 10 µM was 25.9%. Still for that read-out and setting: in the case of `CC1(C)CC2CC(C)(CN2C(=O)c2cn3c(n2)CCC(c2ccccc2)C3)C1` (stereo not drawn) [Compound 3, (6-Phenyl-5,6,7,8-tetrahydroimidazo[1,2-a]pyridin-2-yl)(1,3,3-trimethyl-6-azabicyclo[3.2.1]octan-6-yl)methanone] it was 16.7%; in that of `O=C(c1cn2c(n1)CCC(c1cccc(F)c1)C2)N1CCN(c2cccc(C(F)(F)F)c2)CC1` (stereo not drawn) [Compound 48, (6-(3-Fluorophenyl)-5,6,7,8-tetrahydroimidazo[1,2-a]pyridin-2-yl)(4-(3-(trifluoromethyl)phenyl)piperazin-1-yl)methanone], 33%; in that of `COc1ccc(N2CCN(C(=O)c3cn4c(n3)CCC(c3cc(C)c(OC)c(C)c3)C4)CC2)cc1` (stereo not drawn) [Compound 44, (6-(4-Methoxy-3,5-dimethylphenyl)-5,6,7,8-tetrahydroimidazo[1,2-a]pyridin-2-yl)(4-(4-methoxyphenyl)piperazin-1-yl)methanone], 27.5%. The same measure, in the same setting: in the case of `Cc1cc(C2CCc3nc(C(=O)N4CCN(c5ccc(F)cc5)CC4)cn3C2)ccc1F` (stereo not drawn) [Compound 63, (6-(4-Fluoro-3-methylphenyl)-5,6,7,8-tetrahydroimidazo[1,2-a]pyridin-2-yl)(4-(4-fluorophenyl)piperazin-1-yl)methanone] it was 96.7%.

Still in this assay, the particulars now being: CHO-K1 cells expressing KCNQ2/3 channels; agonistic activity.
For the compound `COc1ccc(C2CCc3nc(C(=O)N4CCN(c5cccc(C(F)(F)F)c5)CC4)cn3C2)c(OC)c1` (stereo not drawn) [Compound 46, (6-(2,4-Dimethoxyphenyl)-5,6,7,8-tetrahydroimidazo[1,2-a]pyridin-2-yl)(4-(3-(trifluoromethyl)phenyl)piperazin-1-yl)methanone], the EC50 amounted to 3.98 µM. In the case of `O=C(c1cn2c(n1)CCC(c1ccccc1)C2)N1CCN(c2cccc(C(F)(F)F)c2)CC1` (stereo not drawn) [Compound 53, (6-Phenyl-5,6,7,8-tetrahydroimidazo[1,2-a]pyridin-2-yl)(4-(3-(trifluoromethyl)phenyl)piperazin-1-yl)methanone], the EC50 amounted to 8.34 µM. Compared with the last compound, the EC50 is about 2.1-fold higher. Still for that read-out and setting: the result for `Cc1cc(C2CCc3nc(C(=O)N4CCC(Cc5ccccc5)CC4)cn3C2)ccc1F` (stereo not drawn) [Compound 57, (4-Benzylpiperidin-1-yl)(6-(4-fluoro-3-methylphenyl)-5,6,7,8-tetrahydroimidazo[1,2-a]pyridin-2-yl)methanone] reads 9.71 µM. Same read-out and setting: in the case of `COc1c(C)cc(C2CCc3nc(C(=O)N4CCC(Cc5ccccc5)CC4)cn3C2)cc1C` (stereo not drawn) [Compound 55, (4-Benzylpiperidin-1-yl)(6-(4-methoxy-3,5-dimethylphenyl)-5,6,7,8-tetrahydroimidazo-[1,2-a]pyridin-2-yl)methanone] it was 5.42 µM.
